pIC50: −log10 of the molar value.

For one data set, the system named is A375 cells. Briefly: A375 cell proliferation assay (trypan blue exclusion). In kind it is cell-based. Particulars: Homo sapiens, A-375; A375, 1 μM, 48 h, treated/untreated cell number; read-out: Proliferation (%) At 1 μM - 48 H. The protocol:
Cells were counted using a Malassez chamber. The average and standard deviation were calculated from triplicate experiments. Antiproliferative effects were evaluated by trypan blue exclusion assay. Briefly, cells were seeded into 12-well plate and grown in media supplemented with indicated compound at 1 or 10 μM for 48 h or 96 h. Cells were washed with PBS and detached by trypsinization, collected and colored by trypan blue. Dead and living cells were counted and proliferation was calculated as follow: Proliferation (%)=[(treated cell number/untreated cells number)*100].
For `COc1ccc(Nc2cc(N3CCN(C)CC3)nc3cc(Cl)ccc23)cc1OC` [Compound 29, 7-chloro-N-(3,4-dimethoxyphenyl)-2-(4-methylpiperazin-1-yl)quinolin-4-amine], the activity at 1 µM came out at 89.6%.
On to `COc1cc(Nc2ccc(OC)c(OC)c2)c2ccc(Cl)cc2n1` [Compound 33, 7-chloro-N-(3,4-dimethoxyphenyl)-2-methoxyquinolin-4-amine], for which the activity at 1 µM amounted to 106%.
Same read-out and setting: with `COc1ccc(Nc2cc(OCCN3CCOCC3)nc3cc(Cl)ccc23)cc1OC` [Compound 32, 7-chloro-N-(3,4-dimethoxyphenyl)-2-(2-morpholinoethoxy)quinolin-4-amine] the figure was 96%.
The same measure, in the same setting: with `COc1ccc(Nc2cc(N3CCN(C)CC3)nc3cc(Cl)ccc23)cc1` [Compound 31, 7-chloro-N-(4-methoxyphenyl)-2-(4-methylpiperazin-1-yl)quinolin-4-amine] the figure was 106%.
Same read-out and setting: with `FC(F)(F)Oc1ccc(Nc2ccnc3ccc(Cl)cc23)cc1` [Compound 36, 6-chloro-N-(4-(trifluoromethoxy)phenyl)quinolin-4-amine] the figure was 105%; with `COc1ccc(Nc2ccnc3cc(Cl)ccc23)c(OC)c1` [Compound 39, 7-chloro-N-(2,4-dimethoxyphenyl)quinolin-4-amine], 88.3%.
Take `COc1cccc(Nc2ccc3c(Nc4cc(F)cc(F)c4)ccnc3c2)c1` [Compound 26, N^4-(3,5-difluorophenyl)-N^7-(3-methoxyphenyl)quinolin-4,7-diamine]: the activity at 1 µM worked out at 54.9%.

The data set is the same for the next values; noted with them: Homo sapiens, A-375; A375, 1 μM, 96 h, treated/untreated cell number; read-out: Proliferation (%) At 1 μM - 96 H.
Take `COc1ccc(Nc2cc(N3CCN(C)CC3)nc3cc(Cl)ccc23)cc1OC` [Compound 29, 7-chloro-N-(3,4-dimethoxyphenyl)-2-(4-methylpiperazin-1-yl)quinolin-4-amine]: the activity at 1 µM was found to be 87.6%.
The same measure, in the same setting: with `COc1cc(Nc2ccc(OC)c(OC)c2)c2ccc(Cl)cc2n1` [Compound 33, 7-chloro-N-(3,4-dimethoxyphenyl)-2-methoxyquinolin-4-amine] the figure was 97.2%; with `COc1ccc(Nc2cc(OCCN3CCOCC3)nc3cc(Cl)ccc23)cc1OC` [Compound 32, 7-chloro-N-(3,4-dimethoxyphenyl)-2-(2-morpholinoethoxy)quinolin-4-amine], 84.5%; with `COc1ccc(Nc2cc(N3CCN(C)CC3)nc3cc(Cl)ccc23)cc1` [Compound 31, 7-chloro-N-(4-methoxyphenyl)-2-(4-methylpiperazin-1-yl)quinolin-4-amine], 83.3%.
Regarding `FC(F)(F)Oc1ccc(Nc2ccnc3ccc(Cl)cc23)cc1` [Compound 36, 6-chloro-N-(4-(trifluoromethoxy)phenyl)quinolin-4-amine], the activity at 1 µM stood at 97.7%.
For the compound `COc1ccc(Nc2ccnc3cc(Cl)ccc23)c(OC)c1` [Compound 39, 7-chloro-N-(2,4-dimethoxyphenyl)quinolin-4-amine], the activity at 1 µM was found to be 34.3%.
Regarding `COc1cccc(Nc2ccc3c(Nc4cc(F)cc(F)c4)ccnc3c2)c1` [Compound 26, N^4-(3,5-difluorophenyl)-N^7-(3-methoxyphenyl)quinolin-4,7-diamine], the activity at 1 µM stood at 9.9%.

The same data set, now with this note: Homo sapiens, A-375; A375, 10 μM, 48 h, treated/untreated cell number; read-out: Proliferation (%) At 10 μM - 48 H.
With `COc1ccc(Nc2cc(N3CCN(C)CC3)nc3cc(Cl)ccc23)cc1OC` [Compound 29, 7-chloro-N-(3,4-dimethoxyphenyl)-2-(4-methylpiperazin-1-yl)quinolin-4-amine], the activity at 10 µM turned out to be 67.2%.
The same measure, in the same setting: with `COc1cc(Nc2ccc(OC)c(OC)c2)c2ccc(Cl)cc2n1` [Compound 33, 7-chloro-N-(3,4-dimethoxyphenyl)-2-methoxyquinolin-4-amine] the figure was 102%; with `COc1ccc(Nc2cc(OCCN3CCOCC3)nc3cc(Cl)ccc23)cc1OC` [Compound 32, 7-chloro-N-(3,4-dimethoxyphenyl)-2-(2-morpholinoethoxy)quinolin-4-amine], 100%.
On the same count and under the same terms, in the case of `COc1ccc(Nc2cc(N3CCN(C)CC3)nc3cc(Cl)ccc23)cc1` [Compound 31, 7-chloro-N-(4-methoxyphenyl)-2-(4-methylpiperazin-1-yl)quinolin-4-amine] it was 37.6%; in that of `FC(F)(F)Oc1ccc(Nc2ccnc3ccc(Cl)cc23)cc1` [Compound 36, 6-chloro-N-(4-(trifluoromethoxy)phenyl)quinolin-4-amine], 49.7%; in that of `COc1ccc(Nc2ccnc3cc(Cl)ccc23)c(OC)c1` [Compound 39, 7-chloro-N-(2,4-dimethoxyphenyl)quinolin-4-amine], 18.1%.
As to `COc1cccc(Nc2ccc3c(Nc4cc(F)cc(F)c4)ccnc3c2)c1` [Compound 26, N^4-(3,5-difluorophenyl)-N^7-(3-methoxyphenyl)quinolin-4,7-diamine], the activity at 10 µM stood at 0.4%.

Staying with this data set, now noted: Homo sapiens, A-375; A375, 10 μM, 96 h, treated/untreated cell number; read-out: Proliferation (%) At 10 μM - 96 H.
On to `COc1ccc(Nc2cc(N3CCN(C)CC3)nc3cc(Cl)ccc23)cc1OC` [Compound 29, 7-chloro-N-(3,4-dimethoxyphenyl)-2-(4-methylpiperazin-1-yl)quinolin-4-amine], for which the activity at 10 µM worked out at 4.8%.
The same measure, in the same setting: in the case of `COc1cc(Nc2ccc(OC)c(OC)c2)c2ccc(Cl)cc2n1` [Compound 33, 7-chloro-N-(3,4-dimethoxyphenyl)-2-methoxyquinolin-4-amine] it was 95.2%; in that of `COc1ccc(Nc2cc(OCCN3CCOCC3)nc3cc(Cl)ccc23)cc1OC` [Compound 32, 7-chloro-N-(3,4-dimethoxyphenyl)-2-(2-morpholinoethoxy)quinolin-4-amine], 82.2%.
The same measure, in the same setting: with `COc1ccc(Nc2cc(N3CCN(C)CC3)nc3cc(Cl)ccc23)cc1` [Compound 31, 7-chloro-N-(4-methoxyphenyl)-2-(4-methylpiperazin-1-yl)quinolin-4-amine] the figure was 3.39%; with `FC(F)(F)Oc1ccc(Nc2ccnc3ccc(Cl)cc23)cc1` [Compound 36, 6-chloro-N-(4-(trifluoromethoxy)phenyl)quinolin-4-amine], 9.89%.
Take `COc1ccc(Nc2ccnc3cc(Cl)ccc23)c(OC)c1` [Compound 39, 7-chloro-N-(2,4-dimethoxyphenyl)quinolin-4-amine]: the activity at 10 µM was found to be 13.6%.
Still for that read-out and setting: in the case of `COc1cccc(Nc2ccc3c(Nc4cc(F)cc(F)c4)ccnc3c2)c1` [Compound 26, N^4-(3,5-difluorophenyl)-N^7-(3-methoxyphenyl)quinolin-4,7-diamine] it was 0%.

Another data set deals with normal human melanocyte. In words: Melanocyte viability assay (trypan blue exclusion). Type of data set: cell-based. Particulars: 96 h. The protocol:
(§1) Cell viability effects were evaluated by trypan blue exclusion assay. Briefly, cells were seeded into 12-well plate and grown in media supplemented with indicated compound at 10 μM for 96 h. Cells were washed with PBS and detached by trypsinization, collected and colored by trypan blue. Dead and living cells were counted and cell viability was calculated as follow: Viability (%)=100−[(dead cell number/total cells)*100].
In the case of `COc1ccc(Nc2cc(N3CCN(C)CC3)nc3cc(Cl)ccc23)cc1OC` [Compound 29, 7-chloro-N-(3,4-dimethoxyphenyl)-2-(4-methylpiperazin-1-yl)quinolin-4-amine], the “Viability (%) at 10 μM Melanocyte” value came out at 91.2%.
Same read-out and setting: with `COc1cc(Nc2ccc(OC)c(OC)c2)c2ccc(Cl)cc2n1` [Compound 33, 7-chloro-N-(3,4-dimethoxyphenyl)-2-methoxyquinolin-4-amine] the figure was 60.1%.
On to `COc1ccc(Nc2cc(OCCN3CCOCC3)nc3cc(Cl)ccc23)cc1OC` [Compound 32, 7-chloro-N-(3,4-dimethoxyphenyl)-2-(2-morpholinoethoxy)quinolin-4-amine], for which the “Viability (%) at 10 μM Melanocyte” value was determined as 98.6%.
The same measure, in the same setting: with `COc1ccc(Nc2cc(N3CCN(C)CC3)nc3cc(Cl)ccc23)cc1` [Compound 31, 7-chloro-N-(4-methoxyphenyl)-2-(4-methylpiperazin-1-yl)quinolin-4-amine] the figure was 33.1%.
For the compound `FC(F)(F)Oc1ccc(Nc2ccnc3ccc(Cl)cc23)cc1` [Compound 36, 6-chloro-N-(4-(trifluoromethoxy)phenyl)quinolin-4-amine], the “Viability (%) at 10 μM Melanocyte” value amounted to 73.4%.
For the compound `COc1ccc(Nc2ccnc3cc(Cl)ccc23)c(OC)c1` [Compound 39, 7-chloro-N-(2,4-dimethoxyphenyl)quinolin-4-amine], the “Viability (%) at 10 μM Melanocyte” value is 99.5%.

The subject of the next data set is EZH2 transcription. In words: Ability to decrease EZH2 mRNA level in A375 (dose-response, quantitative PCR). In kind it is cell-based. The settings on record: Homo sapiens, A-375, 96 h; A375 cells, incubated 4 days; read-out: IC50 (concentration necessary to obtain 50% of EZH2 transcription activity). The protocol: Typically, 30000-50000 cells were plated in six-well culture plates and incubated 24 h later with increasing concentration of NIK inhibitors or vehicle. Cells were incubated with the inhibitors for 4 days prior to harvesting for RNA extraction and PCR. Total RNA was isolated from cells using the RNAeasy minikit (Qiagen) according to the manufacturer's procedure. Reverse transcription was performed using the AMV reverse transcription system (Promega), and quantitative PCR was performed with Power Sybr green (Applied Biosystems, Life Technologies, Grand Island, N.Y.) following the manufacturer's instructions. The PCR was carried out on a Step One plus Real-Time PCR system (Applied Biosystems). All analyses were done in triplicate, and a melting curve analysis was performed to control for product quality and specificity. Expression levels were calculated using the comparative method of relative quantification, with SB34 as a normalizer. The data were analyzed for statistical significance using Student's t-test. The results are presented as the mean±SEM relative to the control. Primers were obtained from primer bank or primer depot (http://pga.mgh.harvard.edu/primerbank/, https://primerdepot.nci.nih.gov), and their specificity was verified using primer blast (http://www.ncbi.nlm.nih.gov/tools/primer-blast/).
Here IC50 represents the concentration necessary to obtain 50% of EZH2 transcription activity.
In the case of `Cc1ccc(Nc2ccnc3cc(Cl)ccc23)cc1` [Compound 2, 4-((4-methylphenyl)amino)-7-chloroquinolinium chloride], the pIC50 was 5.00.
In the case of `COc1ccc(Nc2ccnc3cc(N4CCOCC4)ccc23)cc1` [Compound 13, N-(4-methoxyphenyl)-7-morpholinoquinolin-4-amine], the pIC50 was 4.82.
The same measure, in the same setting: with `COc1cccc(Nc2ccnc3cc(Cl)ccc23)c1` [Compound 6, 4-((3-methoxyphenyl)amino)-7-chloroquinolinium chloride] the figure was 4.82.

The next data set deals with normal human fibroblast. Briefly: Fibroblast viability assay (trypan blue exclusion). In kind it is cell-based. Particulars: 96 h. As for the experimental part: as §1
With `COc1ccc(Nc2cc(N3CCN(C)CC3)nc3cc(Cl)ccc23)cc1OC` [Compound 29, 7-chloro-N-(3,4-dimethoxyphenyl)-2-(4-methylpiperazin-1-yl)quinolin-4-amine], the “Viability (%) at 10 μM Fibroblast” value stood at 41.6%.
For the compound `COc1cc(Nc2ccc(OC)c(OC)c2)c2ccc(Cl)cc2n1` [Compound 33, 7-chloro-N-(3,4-dimethoxyphenyl)-2-methoxyquinolin-4-amine], the “Viability (%) at 10 μM Fibroblast” value is 97.7%.
Regarding `COc1ccc(Nc2cc(OCCN3CCOCC3)nc3cc(Cl)ccc23)cc1OC` [Compound 32, 7-chloro-N-(3,4-dimethoxyphenyl)-2-(2-morpholinoethoxy)quinolin-4-amine], the “Viability (%) at 10 μM Fibroblast” value was determined as 99.4%.
In the case of `COc1ccc(Nc2cc(N3CCN(C)CC3)nc3cc(Cl)ccc23)cc1` [Compound 31, 7-chloro-N-(4-methoxyphenyl)-2-(4-methylpiperazin-1-yl)quinolin-4-amine], the “Viability (%) at 10 μM Fibroblast” value is reported as 29.6%.
Still for that read-out and setting: with `FC(F)(F)Oc1ccc(Nc2ccnc3ccc(Cl)cc23)cc1` [Compound 36, 6-chloro-N-(4-(trifluoromethoxy)phenyl)quinolin-4-amine] the figure was 92.1%; with `COc1ccc(Nc2ccnc3cc(Cl)ccc23)c(OC)c1` [Compound 39, 7-chloro-N-(2,4-dimethoxyphenyl)quinolin-4-amine], 100.0%.

The record behind these values is patent publication US20200181089A1, “4-ANILINO-QUINOLINE COMPOUNDS AS ANTI-CANCER AGENTS” (INSERM (INSTITUT NATIONAL DE LA SANTÉ ET DE LA RECHERCHE …, priority 2016, published 2020).
